experiment: method code SF-AS, from DOI: 10.1021/jf00107a040

| SMILES | logP |
| --- | --- |
| CNC(=O)Nc1cccc(Cl)c1 | 2.18 |
| CON(C)C(=O)Nc1ccc(Br)c(Cl)c1 | 3.09 |
| Cc1ccc(NC(=O)N(C)C)cc1 | 1.33 |
| CNC(=O)Nc1ccc(OC)c(Cl)c1 | 1.76 |
| Cc1cc(N)ccc1Br | 2.53 |
| CCOC(=O)Nc1ccccc1 | 2.26 |
| O=C(Nc1ccccc1)NC1CCCCCC1 | 2.95 |
| Cc1cc(NC(N)=O)ccc1Br | 2.49 |
| O=C(Nc1ccccc1)NC1CCCCC1 | 2.77 |
| CC(=O)Nc1ccc(Br)cc1 | 2.14 |
| CC(C)OC(=O)Nc1ccccc1 | 2.6 |
| CC(=O)Nc1cccc(Cl)c1 | 2.02 |
| CC(=O)Nc1cccc(C(F)(F)F)c1 | 2.2 |
| COc1ccc(NC(C)=O)cc1Cl | 1.82 |
| O=C(Nc1ccccc1)NC1CC1 | 1.65 |
| COc1ccc(NC(=O)N(C)C)cc1 | 0.83 |
| CCCCCOC(=O)Nc1ccccc1 | 3.8 |
| Cc1cccc(NC(N)=O)c1 | 1.29 |
| CC(=O)Nc1cccc(Br)c1 | 2.04 |
| Cc1cc(NC(N)=O)ccc1F | 1.59 |

| SMILES | logP |
| --- | --- |
| CC(=O)Nc1cccc(F)c1 | 1.46 |
| CN(C)C(=O)Nc1cccc(Cl)c1 | 2.01 |
| CN(C)C(=O)Nc1cccc(C(F)(F)F)c1 | 2.42 |
| CNC(=O)Nc1ccc(C)c(Cl)c1 | 2.61 |
| COc1ccc(NC(N)=O)cc1Cl | 1.37 |
| Cc1ccc(NC(=O)N(C)C)cc1Cl | 2.41 |
| CNC(=O)Nc1ccccc1 | 1.17 |
| O=[N+]([O-])c1ccc(Br)cc1 | 2.6 |
| O=C(Nc1ccccc1)NC1CCCC1 | 2.65 |
| CCCOC(=O)Nc1ccccc1 | 2.8 |
| CN(C)C(=O)Nc1cccc(F)c1 | 1.37 |
| CN(C)C(=O)Nc1ccc(F)cc1 | 1.13 |
| Cc1cc(NC(=O)N(C)C)cc(C)c1Br | 2.92 |
| CCCCOC(=O)Nc1ccccc1 | 3.3 |
| COc1cccc(NC(=O)N(C)C)c1 | 1.73 |
| COc1ccc(NC(=O)N(C)C)cc1Cl | 1.64 |
| Cc1cc(C)cc(NC(=O)N(C)C)c1 | 1.9 |
| NC(=O)Nc1ccc(Oc2ccccc2)cc1 | 2.8 |
| CC(=O)Nc1cccc(C)c1 | 1.52 |

experiment: method code SF-GLC, from DOI: 10.1021/jf00107a040

| SMILES | logP |
| --- | --- |
| NC(=O)Nc1ccc(F)cc1 | 1.04 |
| NC(=O)Nc1ccc(Br)cc1 | 1.98 |
| NC(=O)Nc1cccc(Br)c1 | 2.08 |
| NC(=O)Nc1ccc(Cl)c(Cl)c1 | 2.64 |
| NC(=O)Nc1ccccc1Cl | 1.27 |
| CNC(=O)Nc1ccc(Cl)c(Cl)c1 | 2.94 |
| COC(=O)Nc1ccc(Cl)c(Cl)c1 | 3.09 |
| NC(=O)Nc1cccc(C(F)(F)F)c1 | 2.31 |
| NC(=O)Nc1ccccc1F | 0.88 |
| NC(=O)Nc1cccc(F)c1 | 1.29 |
| NC(=O)Nc1cccc(Cl)c1 | 1.82 |
| COc1ccc(N)cc1Cl | 1.85 |

experiment: method code SF-RC, from DOI: 10.1021/jf00107a040

| SMILES | logP |
| --- | --- |
| CNC(=O)ON=CC(C)(C)S(C)(=O)=O | -0.57 |
